Laboratory results taken from publication PMC6913647, “Novel sulphonamides incorporating triazene moieties show powerful carbonic anhydrase I and II inhibitory properties” (Journal of Enzyme Inhibition and Medicinal Chemistry, 2019).
Where two headings read alike, the source gives them in different places.

Experiments:
[1] = molecular target: T1, hCA II (Homo sapiens, UniProt P00918); assay: esterase inhibition assay; assay type: biochemical
T1 construct: gene CA2; native enzyme purified from human blood; cytosolic isoform
Source text: esterase inhibition assay on hCA II

[2] = molecular target: T2, hCA I (Homo sapiens, UniProt P00915); assay: esterase inhibition assay; assay type: biochemical
T2 construct: gene CA1; native enzyme purified from human blood; cytosolic isoform
Source text: esterase inhibition assay on hCA I

[3] = substrate 4-nitrophenyl acetate

T2 sequence (P00915 2-261): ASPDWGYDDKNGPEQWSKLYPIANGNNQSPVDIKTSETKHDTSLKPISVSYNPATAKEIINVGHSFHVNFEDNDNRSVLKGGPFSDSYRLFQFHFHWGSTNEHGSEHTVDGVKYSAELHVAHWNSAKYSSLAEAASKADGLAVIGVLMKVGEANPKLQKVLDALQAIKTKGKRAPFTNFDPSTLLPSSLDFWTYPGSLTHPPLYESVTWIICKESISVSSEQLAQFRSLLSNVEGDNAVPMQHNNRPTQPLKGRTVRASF

Row | Structure (SMILES) | Ki [1] [nM] | Ki [2] [nM] | Ki [2, 3] [nM] | Ki [1, 3] [nM]
1 | NS(=O)(=O)c1cccc(N=NNc2ccccc2)c1 [compound 1, 3–(3-Pheynltriaz-1-en-1-yl)benzenesulfonamide] | 18 ± 5 | 28 ± 6 |  | 
2 | NS(=O)(=O)c1cccc(N=NNc2ccc(F)cc2)c1 [compound 2, 3-(3-(4-Fluorophenyl)triaz-1-en-1-yl) benzenesulfonamide] | 21 ± 9 |  | 21 ± 4 | 
3 | NS(=O)(=O)c1cccc(N=NNc2ccc(Br)cc2)c1 [compound 3, 3-(3-(4-Bromophenyl)triaz-1-en-1-yl) benzenesulfonamide] | 19 ± 4 | 57 ± 3 |  | 
4 | COc1ccc(/N=N/Nc2cccc(S(N)(=O)=O)c2)cc1 [compound 5, 3-(3-(4-Methoxyphenyl)triaz-1-en-1-yl) benzenesulfonamide] | 21 ± 4 | 42 ± 8 |  | 
5 | NS(=O)(=O)c1cccc(N=NNc2cccc(Cl)c2)c1 [compound 7, 3-(3-(3-Chlorophenyl)triaz-1-en-1-yl) benzenesulfonamide] | 22 ± 6 | 53 ± 15 |  | 
6 | CCOc1ccc(NN=Nc2cccc(S(N)(=O)=O)c2)cc1 [compound 4, 3-(3-(4-Ethoxyphenyl)triaz-1-en-1-yl) benzenesulfonamide] |  | 38 ± 4 |  | 16 ± 6
7 | CCc1ccc(NN=Nc2cccc(S(N)(=O)=O)c2)cc1 [compound 6, 3-(3-(4-Ethylphenyl)triaz-1-en-1-yl) benzenesulfonamide] | 16 ± 2 | 49 ± 2 |  | 

More lines, now with the values ahead:

Row | Ki [1] [nM] | Ki [2] [nM] | Ki [2, 3] [nM] | Ki [1, 3] [nM] | Structure (SMILES)
8 | 33 ± 9 | 72 ± 2 |  |  | NS(=O)(=O)c1cccc(N=NNc2ccccc2F)c1 [compound 11, 3-(3-(2-Fluorophenyl)triaz-1-en-1-yl) benzenesulfonamide]
9 | 28 ± 6 | 36 ± 3 |  |  | NS(=O)(=O)c1cccc(N=NNc2cccc(F)c2)c1 [compound 8, 3-(3-(3-Fluorophenyl)triaz-1-en-1-yl) benzenesulfonamide]
10 | 40 ± 2 | 61 ± 1 |  |  | NS(=O)(=O)c1cccc(N=NNc2ccccc2Br)c1 [compound 12, 3-(3-(2-Bromophenyl)triaz-1-en-1-yl) benzenesulfonamide]
11 | 20 ± 5 | 46 ± 12 |  |  | NS(=O)(=O)c1cccc(N=NNc2ccccc2Cl)c1 [compound 10, 3-(3-(2-Chlorophenyl)triaz-1-en-1-yl) benzenesulfonamide]
12 | 23 ± 2 | 33 ± 5 |  |  | COc1cccc(NN=Nc2cccc(S(N)(=O)=O)c2)c1 [compound 9, 3-(3-(3-Methoxyphenyl)triaz-1-en-1-yl) benzenesulfonamide]
